Measured values as given in patent publication US20030099983A1, “Cyclic and substituted immobilized molecular synthesis” (Affymetrix, Inc., priority 1991, published 2003).

tested on: monoclonal antibody D32.39; settings: normalized 0 to 100% after background subtraction
Method: Non-specific protein binding to the surface was blocked with 1% BSA/PBS/0.05% Tween 20. The array was incubated with the D32.39 antibody at a concentration of 10 μg/ml for 2 hours, followed by reaction with 10 μg/ml of FITC conjugated anti-mounse antibody (Sigma) for 2 hours at 20° C. Following extensive washing with buffer, the array was scanned in a confocal fluorescence microscope with 488 nm excitation from an argon ion laser (Spectra-Physics). […] The replicates were averaged, and the data sorted according to desired sequences.

Substance | relative intensity (normalized fluorescence signal)
FLRRQFKVVT | about 100%

same assay, conditions: relative fluorescence intensity of the corresponding surface-immobilized peptide (N-acetylated, C-terminal amide link to surface)

Substance | Normalized Intensity (%)
Ac-FLRRQFKVVT-OH | 98%
Ac-QFKVVT-OH [Ac-QFKVVT-OH] | 28%
Ac-RQFKVVT-OH [Ac-RQFKVVT-OH] | 99%
Ac-RRQFKVVT-OH | 99%

same assay, conditions: truncated dynorphin peptides, surface-immobilized, N-acetylated, linked via C-terminal amide; D32.39 10 μg/ml 2 hours; ± SD of min. four replicates; […]

Substance | Normalized Intensity (%)
FKVV | 10 ± 2%
FKVVT | 13 ± 4%
FLRR | 6 ± 3%
FLRRQ | 8 ± 3%
FLRRQF | 8 ± 3%
FLRRQFK | 10 ± 3%
FLRRQFKV | 14 ± 3%
FLRRQFKVV | 37 ± 15%
FLRRQFKVVT | 98 ± 1%
KVVT | 11 ± 2%
LRRQ | 10 ± 4%
LRRQF | 10 ± 4%
LRRQFK | 12 ± 3%
LRRQFKV | 16 ± 3%
LRRQFKVV | 44 ± 12%
LRRQFKVVT | 87 ± 13%
QFKV | 11 ± 2%
QFKVV | 17 ± 2%
QFKVVT | 28 ± 3%
RQFK | 13 ± 5%
RQFKV | 16 ± 4%
RQFKVV | 54 ± 11%
RQFKVVT | 99 ± 1%
RRQF | 11 ± 5%
RRQFK | 12 ± 3%
RRQFKV | 16 ± 3%
RRQFKVV | 58 ± 10%
RRQFKVVT | 99 ± 1%
